Assay results from patent US4312605A, “Method for grouting joints and/or cracks in sewer conduits” (Hayward Baker Company, priority 1980, dated 1982).

What was measured:
albino rats [1] = details: cited from earlier work
albino rats [2] = assay: Acute toxicity (LD50) of grout monomers; format: in vivo; details: from LD50 of MBA vs acrylamide
[3] = Precipitation of crosslinker from aqueous monomer solution; format: physicochemical; details: based on total metal acrylate salt; aqueous monomer solution 20-40% solids, especially if shaken
[4] = cited from earlier work
[5] = 4 to 25% calcium acrylate based on dry soil weight, redox catalyst; U.S. Pat. No. 2,651,619; cited from earlier work
[6] = Gel time of grout mixtures after mixing components A and B; format: physicochemical; details: used instead of MgA in the monomer composition
Protocol: To 50 parts of each of the stock solutions a, b, c, d, and e, there is added 1.0 part of TEA (95% in water) and to another 50 parts of each of the stock solutions, there is added 2.0 parts of TEA (95% in water). The resulting ten solutions containing TEA, the latter five having twice as much TEA as the first five, are examples of component A that can be mixed with an approximately equal volume of initiator component B which in its simplest make-up consists of a solution in water of ammonium persulfate (AP).
The component B that is used with each of the first five of the TEA/monomer component A solutions is a solution of 2% AP in water, approximately 50 parts of the 2% AP solution being mixed, as at the discharge header of a packer, with 50 parts of the respective component A solution. These first five A and B mixtures when used in the field at about 20° (68° F.) have gel times of about 30 seconds. The component B made up for use with the last group of five TEA/monomer components A is a solution of 4% AP in water. When the latter AP solution is forced at approximately a rate of 50 parts for each 50 parts of a respective one of the last five TEA/monomer component A solutions through separate feed lines to the packer at field temperatures of about 10° (50° F.), the grout mixtures A and B give approximately 30-second gel times.

SMILES: C=CC(=O)NCNC(=O)C=C [MBA, N,N'-methylenebisacrylamide]
- LD50 (albino rats [1]): 390 mg/kg
- monomer toxicity (factor relative to acrylamide) (albino rats [2]): 1/2
- amount of crosslinker above which it tends to precipitate [3]: about 4 % by weight
- neurotoxicity ([4]; at dose schedules and conditions employed (MRI Project No. 4308-N, page 287)): not neurotoxic

SMILES: C=CC(N)=O [acrylamide]
- neurotoxicity (general statement) ([4]; in vivo): a neurotoxic chemical

SMILES: C=CC(=O)O [calcium acrylate (CaA), calcium acrylate]
- compressive strength of stabilized soil [5]: up to 600 psi
- gel time (in words) [6]: long gel time
